For 11 compounds, IC50 results are on record in patent publication US20230271993A1, “3-DEOXY-2-KETOALDONIC ACID NITROGEN-CONTAINING DERIVATIVE, PREPARATION METHOD THEREOF, AND USE THEREOF” (SICHUAN UNIVERSITY, priority 2020, published 2023).

Where two headings read alike, the source gives them in different places.

Experiment [1] deals with Zika virus-infected BHK cells. Nature of the experiment: Anti-Zika (ZIKV) virus activity test, CellTiter-Glo cell viability. The format is cell-based, Zika virus SZ-SMGC-01 strain. Conditions: 100 TCID50 virus per well, 9 days at 37° C. On the procedure: (1) Anti-Zika (ZIKV) Virus Activity Test
Test object: Zika virus-infected BHK cells
Testing Method: • (1) BBHK cells (preserved by the Academy of Military Medical Sciences) were inoculated into a 96-well plate at a concentration of 5×10^3 cells/well, and the cell culture medium was DMEM medium (purchased from Gibco Company, Cat. No. 11995065) containing 10% FBS (purchased from Gibco, Cat. No. 16000044), the plate was placed in a CO2 incubator, and incubated at 37° C. for 24 hours. • (2) The original medium in the 96-well plate was discarded, 100 μL of DMEM medium (purchased from Gibco, Cat. No. 11995065) containing 2% FBS (purchased from Gibco, Cat. No. 16000044) was taken and added into the cells. Then, the stock solution of the compound to be tested was serially diluted with the above-mentioned DMEM medium to 800 μM, 266.67 μM, 88.89 μM, 29.63 μM, 9.88 μM, 3.29 μM, 1.10 μM, 0.37 μM, and 50 μL was added to the cell culture plate. The stock solution of positive compound NITD008 (purchased from MCE Company, Cat. No. HY-12957) was serially diluted with the above DMEM medium to 80 μM, 26.67 μM, 8.89 μM, 2.96 μM, 0.99 μM, 0.33 μM, 0.11 μM, 0.04 μM, and 50 μL was added to the cell culture plate. Finally, 50 μL of Zika virus SZ-SMGC-01 strain (preserved by the Academy of Military Medical Sciences) diluted in DMEM medium containing 2% FBS was added to the cells, each well contained 100 TCID50 of the virus. The final concentration of the compound to be tested was 0.25 times the pretreatment concentration, that was, the initial concentration was 200 μM, and dilution was carried out by 3-fold series, so that the final concentrations of the compound to be tested were: 200 μM, 66.67 μM, 22.22 μM, 7.41 μM, 2.47 μM, 0.82 μM, 0.27 μM, 0.09 μM. The final concentrations of the positive compound were: 20 μM, 6.67 μM, 2.22 μM, 0.74 μM, 0.25 μM, 0.082 μM, 0.027 μM, 0.009 μM. Negative control (to the cell well, DMSO and culture medium were added, without drug) and positive control (to the cell well, DMSO, culture medium and virus were added, without drug) were set. The cell culture plates were incubated at 37° C. for 9 days. • (3) The Buffer and the substrate of CellTiter-Glo® Chemiluminescent Cell Viability Assay (purchased from Promega, Cat. No. G7573) were mixed in the dark to prepare a working solution. The working solution was mixed with PBS (purchased from Gibco, Cat. No. 10010049) at a ratio of 4:6. After the medium in the cell culture plate was discarded, 100 μl of detection reagent was added to each well, and the 96-well plate was shaken for 5 min with an orbital shaker to induce cell lysis. After stabilizing the signal in the dark for 2 minutes, a microplate reader (purchased from Molecular Devices, model SpectraMax M5) was used to measure the chemiluminescent units, the plate reading program was the preset program of CellTiter-Glo, and the cell viability was calculated:
Cell viability (%)=(A(drug treatment group)−A(positive control))/(A(negative control)−A(positive control))×100%
(§1) wherein, A represented the reading of the microplate reader.
(§2) Result evaluation: origin8.0 software was used to carry out the S-type curve fitting on the inhibition rate-concentration, and the IC50 value of the compound to be tested was calculated.
For orientation: ATP-based viability assays read luminescence as a measure of living cells.

Experiment [2] has as its system Rhinovirus (HRV-1059)-infected H1 Hela cells. Nature of the experiment: Anti-rhinovirus (HRV-1059) activity test, CellTiter-Glo cell viability. It counts as cell-based, rhinovirus HRV-1059 strain. Conditions: 100 TCID50 virus per well, 6 days at 37° C., read-out: IC50 Anti-HRV (H1Hela).
Text: (2) Anti-Rhinovirus (HRV-1059) Activity Test
Test object: Rhinovirus (HRV-1059)-infected H1 Hela cells
Testing method: • (1) H1 Hela cells (purchased from the National Experimental Cell Resource Sharing Platform, Cat. No. 3111C0001CCC000344) were inoculated into a 96-well plate at a concentration of 1.5×10^4 cells/well, and the cell culture medium was DMEM medium (purchased from Gibco, Cat. No. 11995065) containing 10% FBS (purchased from Gibco, Cat. No. 16000044), the plate was placed in a CO2 incubator and incubated at 37° C. for 24 hours. • (2) The original medium in the 96-well plate was discarded, 100 μL of DMEM medium (purchased from Gibco, Cat. No. 11995065) containing 2% FBS (purchased from Gibco, Cat. No. 16000044) was taken and added into the cells. Then the stock solution of the compound to be tested was serially diluted with the above DMEM medium to 800 μM, 266.67 μM, 88.89 μM, 29.63 μM, 9.88 μM, 3.29 μM, 1.10 μM, 0.37 μM, 0.12 μM, 0.04 μM, and 50 μL was added to the cell culture plate. The stock solution of positive compound NITD008 (purchased from MCE Company, Cat. No. HY-12957) was serially diluted with the above DMEM medium to 80 μM, 26.67 μM, 8.89 μM, 2.96 μM, 0.99 μM, 0.33 μM, 0.11 μM, 0.04 μM, 0.012 μM, 0.004 μM, 50 μL was added to the cell culture plate. Finally, 50 μL of the rhinovirus HRV-1059 strain (purchased from ATCC, Cat. No. VR-482) diluted with DMEM medium containing 2% FBS was added to the cells, the amount of virus contained in each well was 100 TCID50. The final concentration of the compound to be tested was 0.25 times of the pretreatment concentration, that was, the initial concentration was 200 μM, the dilution was carried out by 3-fold series, the final concentrations of the compound to be tested were: 200 μM, 66.67 μM, 22.22 μM, 7.41 μM, 2.47 μM, 0.82 μM, 0.27 μM, 0.09 μM, 0.03 μM, 0.01 μM. The final concentrations of the positive compound were: 20 μM, 6.67 μM, 2.22 μM, 0.74 μM, 0.25 μM, 0.082 μM, 0.027 μM, 0.009 μM, 0.003 μM, 0.001 μM. Negative control (to the cell well, DMSO and medium were added, without drug) and positive control (to the cell well, DMSO, medium and virus were added, without drug) were set. The cell culture plates were incubated at 37° C. for 6 days. • (3) The Buffer and the substrate of CellTiter-Glo® Chemiluminescent Cell Viability Assay (purchased from Promega, Cat. No. G7573) was mixed in the dark to obtain a working solution. The working solution was mixed with PBS (purchased from Gibco, Cat. No. 10010049) at a ratio of 4:6. After the medium in the cell culture plate was discarded, 100 μl of detection reagent was added to each well, and the 96-well plate was shaken for 5 min with an orbital shaker to induce cell lysis. After stabilizing the signal in the dark for 2 minutes, a microplate reader (purchased from Molecular Devices, model SpectraMax M5) was used to measure the chemiluminescent units, the plate reading program was the preset program of CellTiter-Glo, and the cell viability was calculated:
Cell viability (%)=(A(drug treatment group)−A(positive control))/(A(negative control)−A(positive control))×[…]
as §1, §2

The mark [3] stands for this setting: Enterovirus, HRV1059, H1-HeLa, 144 h.

As to `COC(=O)[C@@]1(N=[N+]=[N-])OC([C@H](O[Si](C)(C)C(C)(C)C)[C@H]2COC(C)(C)O2)[C@H](NC(C)=O)C(O[Si](C)(C)C(C)(C)C)C1N=[N+]=[N-]` (single isomer, unassigned) [Compound 4a], the IC50 (in general, the concentration at which inhibition is half-maximal) came out at 1.41 µM in experiment [1] (Zika virus, BHK, 216 h) and 4.58 µM in experiment [2].

On to `COC(=O)[C@@]1(N=[N+]=[N-])OC([C@H](O[Si](C)(C)C(C)(C)C)[C@H]2COC(C)(C)O2)[C@H](NC(C)=O)C(O[Si](C)(C)C(C)(C)C)C1N=[N+]=[N-]` (single isomer, unassigned) [Compound 4b], for which the results for the IC50 in experiment [1] and in experiment [2] were 2.49 µM and 18.9 µM, respectively.

As for `COC(=O)[C@@]1(N=[N+]=[N-])OC([C@H](OC(=O)c2ccccc2)[C@@H](COC(=O)c2ccccc2)OC(=O)c2ccccc2)[C@H](NC(C)=O)C(OC(=O)c2ccccc2)C1N=[N+]=[N-]` (stereo partly shown) [Compound 6a], the IC50 in experiment [1] (Zika virus, BHK, 216 h) is 21.7 µM; in experiment [2] (setting [3]), above 200 µM.

As for `COC(=O)[C@]1(N=[N+]=[N-])OC([C@H](OC(=O)c2ccccc2)[C@@H](COC(=O)c2ccccc2)OC(=O)c2ccccc2)[C@H](NC(C)=O)C(OC(=O)c2ccccc2)C1N=[N+]=[N-]` (stereo partly shown) [Compound 6b], the IC50 in experiment [1] (Zika virus, BHK, 216 h) is 10.6 µM; in experiment [2] (setting [3]) it was above 200 µM.

Take `COC(=O)[C@@]1(N=[N+]=[N-])OC([C@H](OC(=O)c2ccccc2)[C@@H](COC(=O)c2ccccc2)OC(=O)c2ccccc2)[C@H](NC(C)=O)C(OC(=O)c2ccccc2)C1N=[N+]=[N-]` (stereo partly shown) [Compound 6c]: the values for the half-inhibitory concentration (IC50) in experiment [1] and in experiment [2] were 11 µM and above 200 µM, respectively.

`COC(=O)[C@]1(N=[N+]=[N-])OC([C@H](OC(=O)c2ccccc2)[C@@H](COC(=O)c2ccccc2)OC(=O)c2ccccc2)[C@H](NC(C)=O)C(OC(=O)c2ccccc2)C1N=[N+]=[N-]` (stereo partly shown) [Compound 6d]: the IC50 in experiment [1] is 10.3 µM; in experiment [2] it was above 200 µM.

`COC(=O)[C@]1(N=[N+]=[N-])OC([C@@H](COC(C)=O)OC(C)=O)[C@H](OC(C)=O)C(OC(C)=O)C1N=[N+]=[N-]` (stereo partly shown) [Compound 10a]: the IC50 in experiment [1] (Zika virus, BHK, 216 h) was above 200 µM; in experiment [2] (setting [3]) it was 10.8 µM.

In the case of `CC(=O)N[C@@H]1C(OC(=O)c2ccccc2)C(N=[N+]=[N-])[C@@](N=[N+]=[N-])(C(=O)O)OC1[C@H](OC(=O)c1ccccc1)[C@@H](COC(=O)c1ccccc1)OC(=O)c1ccccc1` (stereo partly shown) [Compound 13], the 50% inhibitory concentration (IC50) in experiment [1] (Zika virus, BHK, 216 h) was 20 µM; in experiment [2] (setting [3]), 13.3 µM.

As to `COC(=O)[C@@]1(N=[N+]=[N-])OC([C@H](OC(=O)c2ccccc2)[C@@H](COC(=O)c2ccccc2)OC(=O)c2ccccc2)[C@H](NC(C)=O)C(OC(=O)c2ccccc2)C1N` (stereo partly shown) [Compound 14], the half-maximal inhibitory concentration (IC50) in experiment [1] (Zika virus, BHK, 216 h) is 14.6 µM; in experiment [2] (setting [3]), above 200 µM.

Consider `CC1(C)OC[C@H](C2O[C@](N=[N+]=[N-])(C(=O)O)C(N=[N+]=[N-])C(O)[C@H]2O)O1` (stereo partly shown) [Compound 19], for which the IC50 in experiment [1] (Zika virus, BHK, 216 h) was above 200 µM; in experiment [2] (setting [3]) it was 24.6 µM.

Turning to `C#C[C@@]1(O)[C@H](O)[C@@H](CO)O[C@H]1n1ccc2c(N)ncnc21` [NITD008, reference compound], the IC50 in experiment [1] turned out to be 1 µM; in experiment [2], 0.05 µM.
